Results: patent US20090062304A1, “Benzimidazole derivatives and their use for modulating the gaba-alpha receptor complex” (priority 2005, published 2009)

Experiments:
[1] = biological target: benzodiazepine modulatory unit of the GABAA receptor complex; test: In vitro inhibition of 3H-flunitrazepam (3H-FNM) binding; conditions: inhibition of specific 3H-FNM (1 nM) binding, rat cerebral cortex membranes, 40 min at 2° C.
Description: In Vitro Inhibition of ^3H-flunitrazepam (^3H-FNM) Binding
The GABA recognition site and the benzodiazepine modulatory unit can selectively be labelled with ^3H-flunitrazepam.
Preparations are performed at 0-4° C. unless otherwise indicated. Cerebral cortex from male Wistar rats (150-200 g) is homogenised for 5-10 sec in 20 ml Tris-HCl (30 mM, pH 7.4) using an Ultra-Turrax homogeniser. The suspension is centrifuged at 27,000×g for 15 min and the pellet is washed three times with buffer (centrifuged at 27,000×g for 10 min). The washed pellet is homogenized in 20 ml of buffer and incubated on a water bath (37° C.) for 30 min to remove endogenous GABA and then centrifuged for 10 min at 27,000×g. The pellet is then homogenized in buffer and centrifuged for 10 min at 27,000×g. The final pellet is resuspended in 30 ml buffer and the preparation is frozen and stored at −20° C.
The membrane preparation is thawed and centrifuged at 2° C. for 10 min at 27,000×g. The pellet is washed twice with 20 ml 50 mM Tris-citrate, pH 7.1 using an Ultra-Turrax homogeniser and centrifuged for 10 min at 27,000×g. The final pellet is resuspended in 50 mM Tris-citrate, pH 7.1 (500 ml buffer per g of original tissue), and then used for binding assays. Aliquots of 0.5 ml tissue are added to 25 μl of test solution and 25 μl of ^3H-FNM (1 nM, final concentration), mixed and incubated for 40 min at 2° C. Non-specific binding is determined using Clonazepam (1 μM, final concentration). After incubation the samples are added 5 ml of ice-cold buffer and poured directly onto Whatman GF/C glass fibre filters under suction and immediately washed with 5 ml ice-cold buffer. The amount of radioactivity on the filters is determined by conventional liquid scintillation counting. Specific binding is total binding minus non-specific binding.
25-75% inhibition of specific binding must be obtained, before calculation of an IC50.
The test value will be given as IC50 (the concentration (μM) of the test substance which inhibits the specific binding of ^3H-FNM by 50%).
Co is specific binding in control assays, and […]

Row | SMILES | melting point [°C] | IC50 [1] [nM]
1 | CC(=O)N1CCN(c2cccc(-n3cnc4cc(C(F)(F)F)ccc43)c2)CC1 | 143 to 146 | –
2 | COc1ccc2c(c1)ncn2-c1cccc(N2CCN(C(C)=O)CC2)c1 | 157 | –
3 | CC(=O)N1CCN(c2cccc(-n3cnc4cc(C)ccc43)c2)CC1 [Compound 23, 1-{4-[3-(5-Methyl-benzoimidazol-1-yl)-phenyl]-piperazin-1-yl}-ethanone] | 145 to 146 | 2.6
4 | CC(=O)N1CCN(c2cccc(-n3cnc4cc(C(C)O)ccc43)c2)CC1 (stereo not shown) [Compound 33, 1-(4-{3-[5-(1-Hydroxy-ethyl)-benzoimidazol-1-yl]-phenyl}-piperazin-1-yl)-ethanone] | 126 | 9.6
5 | CC(=O)N1CCN(c2cccc(-n3cnc4cc(C(C)C)ccc43)c2)CC1 [Compound 38, 1-{4-[3-(5-Isopropyl-benzoimidazol-1-yl)-phenyl]-piperazin-1-yl}-ethanone] | – | 5
